Results taken from PubChem BioAssay (NCI).
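Protocol summary: plate cells (96-well), add compound at 5 concentrations, incubate 48 h, interpolate endpoints linearly. TGI is the concentration that stops growth completely.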

Tests used:
Experiment in all cases: NCI-60 cell line screen, 48 h
IGROV1 ovarian = tested on: IGROV1 ovarian
LOX IMVI melanoma = tested on: LOX IMVI melanoma
SK-MEL-5 melanoma = tested on: SK-MEL-5 melanoma
SN12C renal = tested on: SN12C renal
A498 renal = tested on: A498 renal
UO-31 renal = tested on: UO-31 renal
UACC-62 melanoma = tested on: UACC-62 melanoma
RXF 393 renal = tested on: RXF 393 renal
U251 CNS = tested on: U251 CNS
SF-268 CNS = tested on: SF-268 CNS
PC-3 prostate = tested on: PC-3 prostate
HOP-92 NSCLC = tested on: HOP-92 NSCLC
NCI-H460 lung = tested on: NCI-H460 lung
RPMI-8226 leukemia = tested on: RPMI-8226 leukemia
SK-OV-3 ovarian = tested on: SK-OV-3 ovarian
HL-60(TB) leukemia = tested on: HL-60(TB) leukemia
SK-MEL-28 melanoma = tested on: SK-MEL-28 melanoma
T-47D breast = tested on: T-47D breast
SW-620 colon = tested on: SW-620 colon
CCRF-CEM leukemia = tested on: CCRF-CEM leukemia

Row | Compound | TGI (IGROV1 ovarian) [µM] | TGI (LOX IMVI melanoma) [µM] | TGI (SK-MEL-5 melanoma) [µM] | TGI (SN12C renal) [µM] | TGI (A498 renal) [µM] | TGI (UO-31 renal) [µM] | TGI (UACC-62 melanoma) [µM] | TGI (RXF 393 renal) [µM] | TGI (U251 CNS) [µM] | TGI (SF-268 CNS) [µM] | TGI (PC-3 prostate) [µM] | TGI (HOP-92 NSCLC) [µM] | TGI (NCI-H460 lung) [µM] | TGI (RPMI-8226 leukemia) [µM] | TGI (SK-OV-3 ovarian) [µM] | TGI (HL-60(TB) leukemia) [µM] | TGI (SK-MEL-28 melanoma) [µM] | TGI (T-47D breast) [µM] | TGI (SW-620 colon) [µM] | TGI (CCRF-CEM leukemia) [µM]
1 | C[C@@]12C[C@@H](c3ccccc3O1)N1CCSC1=N2 | > 100 | > 100 | > 100 | > 100 | > 100 | > 100 | > 100 | > 100 | > 100 | > 100 | > 100 | > 100 | > 100 | > 100 | > 100 | > 100 | > 100 | > 100 | > 100 | –
2 | COc1cc(/C=C2/C[C@H]3[C@@H]4CCC5=CC(=O)CC[C@]5(C)[C@H]4CC[C@]3(C)NC2=O)cc(OC)c1OC | 94.7 | – | 52.4 | > 100 | 41.6 | 26.8 | > 100 | 46.7 | 57.1 | > 100 | > 100 | 39.6 | > 100 | > 100 | > 100 | 45.3 | > 100 | 63 | > 100 | 64.4
3 | Cc1cc2c(cc1Cl)SC(NN(C)C)=NS2(=O)=O | > 10 | > 10 | > 10 | > 10 | > 10 | – | > 10 | > 10 | > 10 | > 10 | > 10 | – | > 10 | > 10 | > 10 | > 10 | > 10 | > 10 | > 10 | > 10
4 | CC(C)(C)OC(=O)N1C[C@H](CC(=O)OCc2ccccc2)C[C@H]1C(=O)OCC(Cl)(Cl)Cl | – | > 50 | 8.13 | > 50 | 25.9 | 11 | > 50 | > 50 | 16.1 | > 50 | > 50 | 21.5 | > 50 | – | > 50 | > 50 | > 50 | > 50 | > 50 | > 50
5 | COc1ccc(Cc2cc(OC)c(OC)c(OC)c2)cc1O | > 100 | > 100 | > 37 | > 100 | 76.8 | > 63.2 | > 73.2 | > 100 | > 22.7 | > 100 | > 100 | – | > 100 | > 100 | > 80.2 | > 26.6 | > 100 | > 100 | > 100 | > 100
6 | O=C1OC(C2Cc3cc4c(cc3C2=O)CCC4)c2ccccc21 (centres undefined) | > 100 | > 100 | > 100 | > 100 | 61.6 | > 100 | > 100 | – | > 100 | > 100 | > 100 | – | > 100 | > 100 | > 100 | > 100 | > 100 | > 100 | > 100 | > 100
7 | CC(=O)Oc1ccn2nc(C)c(Cc3c(C)nn4ccc(OC(C)=O)cc34)c2c1 | > 100 | > 100 | > 100 | > 100 | – | – | > 100 | – | > 100 | > 100 | > 10 | > 100 | > 100 | – | – | > 100 | > 100 | > 100 | > 100 | 76.6
8 | CCOP(=O)(OCC)/C(=C/c1ccccc1)CC(C)=O | > 100 | > 100 | > 100 | > 100 | > 100 | > 100 | > 100 | > 100 | > 100 | > 100 | > 100 | > 100 | > 100 | – | > 100 | 68.7 | > 100 | > 100 | > 100 | > 100
9 | Cn1c(=O)c2[nH]c(/N=N\n3ccc4ccccc43)nc2n(C)c1=O | – | > 100 | > 100 | > 100 | > 100 | > 100 | > 100 | > 100 | > 100 | > 100 | > 100 | – | > 100 | > 100 | > 100 | > 100 | > 100 | > 100 | > 100 | > 100
10 | CCOC(=O)N/N=C/C1=NN(C(=O)OCC)S(=O)C1C (centres undefined) | > 100 | – | > 100 | > 100 | > 100 | > 100 | > 100 | > 100 | > 100 | > 100 | > 100 | > 100 | > 100 | > 100 | > 100 | > 100 | > 100 | > 100 | > 100 | > 100
11 | CC(C)=CCC/C(C)=C/CC/C(C)=C/[C@@H]1[C@@H](CO)[C@]1(C)CC/C=C(\C)CCC=C(C)C | 27.5 | 23.8 | > 100 | > 100 | > 100 | 34.3 | – | 72.8 | > 100 | 40.8 | 56.5 | 38.2 | > 100 | 71.8 | > 100 | – | > 100 | > 100 | 66.9 | 45.2
12 | Nc1ccc(S(=O)(=O)Nc2nc3ccccc3nc2Nc2ccc(S(N)(=O)=O)cc2)cc1 | > 100 | 38.3 | > 100 | > 100 | – | 56.2 | > 100 | 62 | > 100 | 60.7 | > 100 | > 100 | > 100 | > 100 | > 100 | 63.2 | > 100 | > 100 | > 100 | > 100
